The subject of data set [1] is RAW264.7. The data set can be described thus: Cytotoxicity against mouse RAW264.7 cells at 30 uM after 24 hrs in presence of LPS by MTT assay. It counts as cell-based. Particulars: raw264.7, 24 h.
Data set [2] has as its system RAW264.7. The data set can be described thus: Cytotoxicity against mouse RAW264.7 cells at 30 uM after 24 hrs in absence of LPS by MTT assay. The format is cell-based. Conditions: raw264.7, 24 h. (In general: Formazan colour is commonly taken as a measure of viable cells.)
In data set [3] the test system is RAW264.7. Briefly: Anti-inflammatory activity in mouse RAW264.7 cells assessed as reduction in COX2 protein expression at 30 uM preincubated for 30 mins before LPS stimulation for 24 hrs by Western blot analysis. It counts as functional, cell-based.
For data set [4], the system named is RAW264.7. Briefly: Anti-inflammatory activity in mouse RAW264.7 cells assessed as inhibition of LPS-induced nitric oxide production after 24 hrs by Griess method. The format is functional, cell-based. Particulars: RAW264.7, 24 h. Background: Nitrite, measured by Griess reagent, commonly stands in for NO production.
Data set [5] relates to RAW264.7. Briefly: Anti-inflammatory activity in mouse RAW264.7 cells assessed as reduction in iNOS protein expression preincubated for 30 mins before LPS stimulation for 24 hrs by Western blot analysis. It counts as functional, cell-based. (In general: Immunoblotting shows a protein as a band on a membrane.)
Data set [6] deals with RAW264.7. Briefly: Anti-inflammatory activity in mouse RAW264.7 cells assessed as reduction in LPS-induced COX2 mRNA expression preincubated for 30 mins followed by LPS stimulation measured after 8 hrs by real-time qPCR method. The format is functional, cell-based.
Data set [7] concerns RAW264.7. The data set can be described thus: Anti-inflammatory activity in mouse RAW264.7 cells assessed as reduction in LPS-induced TNFalpha mRNA expression preincubated for 30 mins followed by LPS stimulation measured after 8 hrs by real-time qPCR method. The format is functional, cell-based.
Data set [8] has as its system RAW264.7. The data set can be described thus: Anti-inflammatory activity in mouse RAW264.7 cells assessed as reduction in LPS-induced iNOS mRNA expression preincubated for 30 mins followed by LPS stimulation measured after 8 hrs by real-time qPCR method. The format is functional, cell-based.
For data set [9], the system named is RAW264.7. The data set can be described thus: Anti-inflammatory activity in mouse RAW264.7 cells assessed as reduction in LPS-induced IL6 mRNA expression preincubated for 30 mins followed by LPS stimulation measured after 8 hrs by real-time qPCR method. It counts as functional, cell-based.

Drawing on ChEMBL document CHEMBL4118158, “Lactones from the pericarps of Litsea japonica and their anti-inflammatory activities” (Bioorg Med Chem Lett, 2018), this text covers Activity and IC50 for 19 compounds.

Activity calls are given as the source filed them. The rule behind the calls is not given here. A value given as a limit tells only on which side of the number the result lay.

For orientation: IC50 means the midpoint of a concentration-inhibition curve. With `C=C/C=C/CCCCCCCCC/C=C1/C(=O)O[C@H](C)[C@H]1O`, the Activity entry was “Non-Toxic” in data set [1], “Non-Toxic” in data set [2] and “Dose-dependent effect” in [5]. Besides, the outcome in data set [3] was Active. Also, the IC50 in data set [4] is 5.8 µM.
On to `CCCCC/C=C/C/C=C/CCCC/C=C/C1=CC(C)OC1=O` (centres undefined), for which the Activity result in data set [1] and in [2] was “Non-Toxic” throughout. In data set [4], the IC50 is over 30 µM.
Take `C#CCCCCCCCC/C=C/C1=CC(C)OC1=O` (centres undefined): the Activity entry in data set [1] and in data set [2] was “Non-Toxic” throughout. Moreover, the IC50 in [4] was over 30 µM.
Regarding `C=CCCCCCCCC/C=C/C1=CC(C)OC1=O` (centres undefined), the Activity result in data set [1] and in data set [2] was “Non-Toxic” throughout. Further, the IC50 in [4] was over 30 µM.
In the case of `CCCCCCCCCCC/C=C1/C(=O)O[C@H](C)[C@H]1O`, the Activity entry in data set [1] and in data set [2] was “Non-Toxic” throughout. Further, the IC50 in data set [4] is 2.9 µM.
As to `C=CCCCCCCCCC/C=C1\C(=O)O[C@H](C)[C@H]1O`, the Activity result was “Non-Toxic” in [1], “Non-Toxic” in [2] and “Dose-dependent effect” in [5]. For the same compound, the IC50 in [4] was determined as 4.5 µM.
With `CC1=C(O)C(=O)C=C2C1=CC=C1[C@@]2(C)CC[C@@]2(C)[C@@H]3C[C@](C)(C(=O)O)CC[C@]3(C)CC[C@]12C` [CELASTROL], the half-inhibitory concentration (IC50) in data set [4] worked out at 1 µM.
In the case of `CCCCCCCCCC/C=C/C1=CC(C)OC1=O` (centres undefined), the Activity result in [1] and in [2] was “Non-Toxic” each time. Moreover, the IC50 in data set [4] is over 30 µM.
With `C#CCCCCCCCCC/C=C1\C(=O)O[C@H](C)[C@H]1O`, the Activity result in data set [1] is “Non-Toxic”; in [2], “Non-Toxic”; in data set [5], “Dose-dependent effect”. In [4], the concentration for half-maximal inhibition (IC50) is 12.8 µM.
With `C=CCCCCCCCC/C=C/[C@H]1C(=O)O[C@H](C)[C@@H]1O`, the Activity entry in data set [1] and in data set [2] was “Non-Toxic” throughout. Further, the IC50 in data set [4] was found to be 14 µM.
Turning to `CCCCC/C=C\C/C=C\CCCCC/C=C1/C(=O)O[C@H](C)[C@H]1O`, the Activity entry in [1] was “Non-Toxic”; in [2] it was “Non-Toxic”; in data set [5] it was “Dose-dependent effect”. Besides, in data set [3], the outcome was Active. Moreover, the half-inhibitory concentration (IC50) in [4] was found to be 4.4 µM.
For the compound `C=CCCCCCCCCC/C=C1/C(=O)O[C@@H](C)[C@H]1O`, the Activity result in [1] and in [2] was “Non-Toxic” each time. In addition, the half-maximal inhibitory concentration (IC50) in [4] is 3 µM.
Regarding `C#CCCCCCCCC/C=C/[C@H]1C(=O)O[C@@H](C)[C@H]1O` [LITSEALACTONE B], the Activity entry in data set [1] and in data set [2] was “Non-Toxic” each time. The IC50 in [4] is over 30 µM.
With `C=CCCCCCCCC/C=C/[C@H]1C(=O)O[C@@H](C)[C@H]1O`, the Activity entry in [1] and in [2] was “Non-Toxic” in each case. In data set [4], the half-inhibitory concentration (IC50) was over 30 µM.
With `C=C/C=C/CCCCCCCC/C=C/C1=CC(C)OC1=O` (centres undefined), the Activity entry in [1] and in data set [2] was “Non-Toxic” throughout. In addition, the half-maximal inhibitory concentration (IC50) in data set [4] is over 30 µM.
With `CCCCCCCCCCCC/C=C/C1=CC(C)OC1=O` (centres undefined), the Activity entry in data set [1] and in data set [2] was “Non-Toxic” throughout. The IC50 in data set [4] was over 30 µM.
Consider `C=CCCCCCCCCC/C=C1/C(=O)O[C@H](C)[C@H]1O`, for which the Activity entry is “Non-Toxic” in data set [1]; “Non-Toxic” in data set [2]; “Dose-dependent effect” in [6]; “Dose-dependent effect” in [7]; “Dose-dependent effect” in data set [8]; “Dose-dependent effect” in [9]. The Activity entry in [5] is “Dose-dependent effect”. The outcome in data set [3] was Active. Moreover, the IC50 in data set [4] is 3.1 µM.
With `CC/C=C/CCCCCCCCC/C=C1/C(=O)O[C@H](C)[C@H]1O`, the Activity entry in data set [1] and in data set [2] was “Non-Toxic” in each case. Besides, the 50% inhibitory concentration (IC50) in [4] came to 2.5 µM.
Turning to `C#CCCCCCCCCC/C=C1/C(=O)O[C@H](C)[C@H]1O`, the Activity entry in data set [1] is “Non-Toxic”; in data set [2], “Non-Toxic”; in data set [5], “Dose-dependent effect”. For the same compound, the outcome in data set [3] was Active. Further, the IC50 in data set [4] stood at 6.2 µM.
